From US7196105B2, “Treatment of human multiple myeloma by curcumin” (Research Development Foundation, priority 2002, dated 2007) come the findings set out here.

The target in one experiment is T1, IκB kinase (Homo sapiens, UniProt O14920+O15111).
T1 construct: 200 μg cytoplasmic extracts were immunoprecipitated with 1 μg of anti-IKKa and IKKb antibodies each; endogenous in cells; host or cells: U266 human multiple myeloma cells (cytoplasmic extract, immunoprecipitate on protein A/G-Sepharose)
The experiment is described as follows: IκB kinase assay on IKK immunoprecipitated from curcumin-treated U266 cells. It counts as cell-based. The following applies: curcumin 50 μM, time course, GST-IκBα substrate. The method, then: Five million U266 cells/2.5 ml were treated with curcumin (50 μM) for the indicated times and cytoplasmic extracts were prepared. FIG. 3A: Level of phosphorylated IκBα determined by Western blotting. FIG. 3B: Immunoprecipitated IκB kinase and kinase assay of IκB kinase activity (upper panel) or Western blotting for the analysis of total IKKα and IKKβ proteins in cytoplasmic extracts (lower panel). FIG. 3C: IκB kinase was immunoprecipitated and kinase assay was performed in the absence or presence of the indicated concentrations of curcumin (upper panel). Lower panel indicates the amount of GST-IκBα protein stained with Coomassie Blue in each well in the same dried gel.
The IkB kinase assay was performed with a modified method as described earlier (Manna et al., 2000). Briefly, 200 μg cytoplasmic extracts were immunoprecipitated with 1 μg of anti-IKKa and IKKb antibodies each, and the immune complexes so formed were precipitated with 0.01 ml of protein A/G-Sepharose beads for 2 hour. The beads were washed first with lysis buffer and then with kinase assay buffer (50 mM HEPES pH 7.4, 20 mM MgCl2, and 2 mM DTT). The immune complex was then assayed for kinase activity using kinase assay buffer containing […] [g-P^32]ATP, 10 μM unlabeled ATP, and 2 μg/sample glutathione S-transferase-IkBa (1–54). […] Radioactive bands of the dried gel were visualized and quantitated by PhosphorImager.

Another experiment concerns IKKα and IKKβ. The experiment is described as follows: Western blot for total IKKα and IKKβ proteins in U266 cytoplasmic extracts. It counts as cell-based, human. Particulars: U266 cells, curcumin 50 μM. The protocol: FIG. 3A: Level of phosphorylated IκBα determined by Western blotting. FIG. 3B: Immunoprecipitated IκB kinase and kinase assay of IκB kinase activity (upper panel) or Western blotting for the analysis of total IKKα and IKKβ proteins in cytoplasmic extracts (lower panel). FIG. 3C: IκB kinase was immunoprecipitated and kinase assay was performed in the absence or presence of the indicated concentrations of curcumin (upper panel). Lower panel indicates the amount of GST-IκBα protein stained with Coomassie Blue in each well in the same dried gel. To determine the total amount of IKK complex in each sample, […] of cytoplasmic protein was resolved on a 7.5% acrylamide gel and then electrotransferred to a nitrocellulose membrane. The membrane was blocked with 5% nonfat milk protein for 1 h and then incubated with either anti-IKKα or anti-IKKβ antibodies for 1 h. The membrane was then washed and treated with HRP-conjugated secondary anti-mouse IgG antibody and finally detected by chemiluminescence (Amersham Pharmacia Biotech, Arlington Heights, Ill.).
Background: A western blot detects proteins with antibodies after separation by electrophoresis.

For experiment [1], the system named is multiple myeloma cell lines (U266, RPMI 8226, MM.1, MM.1R). Kind of experiment: Growth/proliferation of all multiple myeloma cell lines tested (statement for all lines). It counts as cell-based, human. The following applies: curcumin 10 μM. From the text:
The results are shown as the mean (±s. d.) cell count from triplicate cultures.

Another experiment has as its system caspase-7. Kind of experiment: Western blot for procaspase-7 (apoptosis). It counts as cell-based, human. Particulars: U266, curcumin 50 μM, time course. The protocol: (§1) The cells were washed and total proteins were extracted by lysing the cells. Sixty microgram of extracts were resolved on 10% SDS-PAGE gel, electrotransferred to a nitrocellulose membrane, and probed with anti-procaspase-9 (FIG. 6C), anti-procaspase-7 (FIG. 6D), anti-PARP (FIG. 6E, upper panel) and anti-cleaved PARP (FIG. 6E, lower penal). […] Lysates were then spun at 14000 rpm for 10 min to remove insoluble material, resolved on 7.5% gel and probed with PARP antibodies. PARP was cleaved from the 116-kDa intact protein into 85-kDa and 40-kDa peptide products. To detect cleavage products of procaspase 7 and procaspase 9, whole cell extracts were resolved on 10% gel and probed with appropriate antibodies.

The next experiment deals with PARP. Kind of experiment: Western blot for PARP cleavage (apoptosis). It counts as cell-based, human. The following applies: U266, curcumin 50 μM, time course. The protocol:
as §1

The test system of the next experiment is U266 cells. Kind of experiment: Cytotoxic effect of vincristine with or without curcumin (MTT). It counts as cell-based, human. Particulars: U266, curcumin 10 μM alone, 24 h. The method, then:
The antiproliferative effects of curcumin against different multiple myeloma cell lines were determined by the MTT dye uptake method as described earlier (Manna et al., 1998). Briefly, cells (5000/well) were incubated in triplicate in a 96-well plate in the presence or absence of indicated test samples in a final volume of 0.1 ml for 24 h at 37° C. Thereafter, 0.025 ml of MTT solution (5 mg/ml in PBS) was added to each well. After a 2 h incubation at 37 ° C., 0.1 ml of extraction buffer (20% SDS, 50% dimethylformamide) was added. Incubation was continued for overnight at 37 ° C., and then the OD at 590 nm was measured using a 96-well multiscanner autoreader (Dynatech MR 5000), with extraction buffer as blank. Percent cell viability=(OD of the experiment samples/OD of the control)×100.

In the next experiment the test system is NF-κB. The experiment is described as follows: Immunocytochemistry for NF-κB in bone marrow CD138+ cells from multiple myeloma patients. Format: cell-based, human. Particulars: patients #5, #9 and #10, 50 μM curcumin, 2 h. The protocol: The cells were fixed on slides by cytospin centrifugation and immuno-stained for NF-κB or STAT3. Red stain indicates specific staining for NF-κB or STAT3, whereas blue stain indicates the relative position of the nuclei in the corresponding view.
Red stain indicates the specific staining for NF-κB or STAT3 as indicated, whereas blue stain indicates the relative position of the nuclei in the corresponding view.
Untreated or treated multiple myeloma cells were plated on a poly-L-lysine-coated glass slide by centrifugation using a Cytospin 4 (Thermoshendon, Pittsburg, Pa.), air-dried for 1 h at room temperature, and fixed with cold acetone. After a brief washing in PBS, slides were blocked with 5% normal goat serum for 1 h and then incubated either with rabbit polyclonal anti-human NF-κB p65 antibody (SC-109; dilution, 1:100) or with anti-human STAT3 antibody (SC-482; dilution, 1:100). After overnight incubation, the slides were washed and then incubated with goat anti-rabbit IgG-Alexa 594 (A-11037; dilution, 1:100) for 1 h and counter-stained for nuclei with Hoechst (50 ng/ml) for 5 min. Stained slides were mounted with mounting medium (Sigma Colo.) and analyzed under an epifluorescence microscope (Labophot-2, Nikon, Tokyo, Japan). […]

Structures are written as SMILES. Entries after “also recorded” stand apart in the source; their conditions may differ.

T1 sequence (O15111 whole entry): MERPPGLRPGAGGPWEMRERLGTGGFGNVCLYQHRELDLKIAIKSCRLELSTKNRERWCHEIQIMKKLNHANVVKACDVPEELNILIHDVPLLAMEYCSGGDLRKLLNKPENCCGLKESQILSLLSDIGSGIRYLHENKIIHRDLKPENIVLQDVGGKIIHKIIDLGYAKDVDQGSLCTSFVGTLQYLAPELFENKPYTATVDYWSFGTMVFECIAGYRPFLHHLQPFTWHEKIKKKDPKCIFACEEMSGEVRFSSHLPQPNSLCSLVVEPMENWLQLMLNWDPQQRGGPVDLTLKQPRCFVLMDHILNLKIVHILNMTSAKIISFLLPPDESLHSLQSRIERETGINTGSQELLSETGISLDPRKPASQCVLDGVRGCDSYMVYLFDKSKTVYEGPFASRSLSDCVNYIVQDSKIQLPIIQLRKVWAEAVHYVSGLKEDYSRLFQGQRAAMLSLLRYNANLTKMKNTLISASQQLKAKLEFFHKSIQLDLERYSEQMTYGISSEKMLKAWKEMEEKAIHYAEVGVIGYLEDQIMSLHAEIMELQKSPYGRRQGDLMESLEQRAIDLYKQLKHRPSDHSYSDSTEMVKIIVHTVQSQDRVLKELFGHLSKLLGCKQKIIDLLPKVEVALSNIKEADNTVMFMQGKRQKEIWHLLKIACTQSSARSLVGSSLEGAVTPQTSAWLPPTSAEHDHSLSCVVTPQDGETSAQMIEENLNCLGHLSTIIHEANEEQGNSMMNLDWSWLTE
T1 sequence (O14920 whole entry): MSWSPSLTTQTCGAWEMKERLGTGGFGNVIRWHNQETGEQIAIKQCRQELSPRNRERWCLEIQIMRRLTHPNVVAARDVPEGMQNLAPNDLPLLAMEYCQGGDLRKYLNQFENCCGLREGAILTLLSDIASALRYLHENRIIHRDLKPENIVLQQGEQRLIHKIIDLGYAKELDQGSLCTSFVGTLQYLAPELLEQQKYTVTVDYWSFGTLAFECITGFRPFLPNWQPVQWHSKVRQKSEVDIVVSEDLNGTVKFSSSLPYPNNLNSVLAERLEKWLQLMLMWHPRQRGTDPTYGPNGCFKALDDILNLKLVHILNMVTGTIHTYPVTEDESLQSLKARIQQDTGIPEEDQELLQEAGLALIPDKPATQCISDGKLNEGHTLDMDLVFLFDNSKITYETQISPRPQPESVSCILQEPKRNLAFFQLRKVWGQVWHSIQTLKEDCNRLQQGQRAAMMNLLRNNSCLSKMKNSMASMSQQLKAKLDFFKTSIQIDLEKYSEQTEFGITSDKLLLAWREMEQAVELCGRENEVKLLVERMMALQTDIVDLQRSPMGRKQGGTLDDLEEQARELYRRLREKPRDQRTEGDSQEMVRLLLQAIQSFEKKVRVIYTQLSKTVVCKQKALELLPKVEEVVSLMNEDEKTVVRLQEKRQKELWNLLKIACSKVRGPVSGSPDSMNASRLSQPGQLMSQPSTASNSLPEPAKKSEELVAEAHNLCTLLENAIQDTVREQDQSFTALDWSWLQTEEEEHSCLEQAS
T1 sequence (Q9Y6K9 whole entry partner): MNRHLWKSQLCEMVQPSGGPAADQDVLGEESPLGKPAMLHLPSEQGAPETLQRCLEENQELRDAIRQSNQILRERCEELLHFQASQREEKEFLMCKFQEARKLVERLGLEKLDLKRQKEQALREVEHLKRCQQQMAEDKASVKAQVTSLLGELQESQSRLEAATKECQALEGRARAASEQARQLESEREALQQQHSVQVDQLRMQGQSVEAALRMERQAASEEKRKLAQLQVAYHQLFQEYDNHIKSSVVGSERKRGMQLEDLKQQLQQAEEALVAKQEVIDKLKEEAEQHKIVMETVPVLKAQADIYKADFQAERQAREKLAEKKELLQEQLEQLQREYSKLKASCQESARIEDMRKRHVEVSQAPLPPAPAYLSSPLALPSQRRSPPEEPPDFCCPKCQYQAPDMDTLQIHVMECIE

With `COc1cc(/C=C/C(=O)CC(=O)/C=C/c2ccc(O)c(OC)c2)ccc1O` [curcumin, diferuloylmethane], the “IκB kinase activity of IKK immunoprecipitated from treated cells” value at IκB kinase is recorded as “decreased in kinase activity”. In the experiment on IKKα and IKKβ, the “protein levels of IκB kinase subunits IKKα and IKKβ” value was “no significant change”. Further, in experiment [1], the suppression of growth/proliferation entry was “completely suppressed the growth; also recorded: almost complete inhibition of proliferation”. In addition, the “activation of caspase-7 (disappearance of 35-kDa band)” value in the experiment on caspase-7 was “time-dependent activation”. Besides, the PARP cleavage entry in the experiment on PARP is “cleavage of a 118-kDa PARP protein into an 89-kDa fragment”. Moreover, the cells killed entry in the experiment with U266 cells is recorded as “approximately 35%”. In addition, in the experiment on NF-κB, the “constitutive NF-κB activation (nuclear localization)” value was “downregulated NF-κB”.
